According to ChEMBL document CHEMBL1201862, “PubChem BioAssay data set” (2004):
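A five-concentration, 48-hour dose response in 96-well plates underlies each endpoint, interpolated linearly between surrounding concentrations. Here, GI50 denotes the concentration required for 50% inhibition of growth.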 The source made the active and inactive calls. Rule as the data show it: active = GI50 up to about 1.1 µM and inactive = higher.

Experiments:
Assay in all cases: NCI anticancer screen, dose series, 48 h
SK-MEL-28 = tested on: SK-MEL-28
CAKI-1 = tested on: CAKI-1
NCI-H522 = tested on: NCI-H522
NCI-H23 = tested on: NCI-H23
RPMI-8226 = tested on: RPMI-8226
ACHN = tested on: ACHN
U-251 = tested on: U-251
HCT-116 = tested on: HCT-116
MDA-MB-435 = tested on: MDA-MB-435
SW-620 = tested on: SW-620
Hs-578T = tested on: Hs-578T
OVCAR-8 = tested on: OVCAR-8
A498 = tested on: A498
KM12 = tested on: KM12
SNB-19 = tested on: SNB-19
OVCAR-3 = tested on: OVCAR-3
HOP-62 = tested on: HOP-62
NCI/ADR-RES = tested on: NCI/ADR-RES
NCI-H226 = tested on: NCI-H226
MDA-MB-231 = tested on: MDA-MB-231

Measured: GI50

O[C@@]12Cc3c([nH]c4ccccc34)[C@@H]3Oc4c(-c5ccccc5)ccc5c4[C@@]31CCN(CC1CC1)[C@@H]2C5
inactive: SK-MEL-28 1.71 µM | CAKI-1 2.97 µM | NCI-H522 1.77 µM | NCI-H23 1.78 µM | RPMI-8226 3.65 µM | ACHN 1.44 µM | U-251 1.71 µM | HCT-116 1.73 µM | MDA-MB-435 1.77 µM | SW-620 2.11 µM | Hs-578T 1.85 µM | OVCAR-8 2.22 µM | A498 1.47 µM | KM12 1.5 µM | SNB-19 1.88 µM | OVCAR-3 1.49 µM | HOP-62 1.51 µM | NCI/ADR-RES 2.51 µM

O=C(n1[nH]c(=O)n(-c2ccc([N+](=O)[O-])cc2)c1=O)C(Cl)(Cl)Cl
inactive: NCI-H226 > 75 µM | SK-MEL-28 > 75 µM | CAKI-1 > 75 µM | NCI-H522 > 75 µM | NCI-H23 > 75 µM | RPMI-8226 > 75 µM | ACHN > 75 µM | U-251 > 75 µM | HCT-116 > 75 µM | MDA-MB-435 > 75 µM | SW-620 > 75 µM | Hs-578T > 75 µM | OVCAR-8 > 75 µM | MDA-MB-231 > 75 µM | KM12 > 75 µM | SNB-19 > 75 µM | OVCAR-3 > 75 µM | HOP-62 > 75 µM | NCI/ADR-RES > 75 µM

COC1=CC(=O)C(O)=C(CC2(C)C(C)CCC3(C)C2CCCC3(C)C)C1=O (stereo not given)
inactive: NCI-H226 2.77 µM | SK-MEL-28 4.43 µM | CAKI-1 3.34 µM | NCI-H522 2.7 µM | NCI-H23 2.84 µM | RPMI-8226 2.96 µM | ACHN 3.89 µM | U-251 2.44 µM | HCT-116 5.12 µM | SW-620 4.03 µM | OVCAR-8 4.57 µM | A498 10.1 µM | KM12 6.44 µM | SNB-19 3.58 µM | OVCAR-3 5.43 µM | HOP-62 3.64 µM

O=c1c2c(c1=O)C1(SCCCS1)c1cc(Cl)ccc1O2
inactive: NCI-H226 > 100 µM | SK-MEL-28 > 100 µM | CAKI-1 > 100 µM | NCI-H522 > 100 µM | NCI-H23 > 100 µM | RPMI-8226 > 100 µM | ACHN > 100 µM | U-251 > 100 µM | HCT-116 > 100 µM | MDA-MB-435 > 100 µM | SW-620 > 100 µM | OVCAR-8 > 100 µM | MDA-MB-231 > 100 µM | A498 > 100 µM | KM12 > 100 µM | SNB-19 > 100 µM | OVCAR-3 > 100 µM | HOP-62 > 100 µM | NCI/ADR-RES > 100 µM

Cc1c(Cl)ccc2c1NC(=O)C2(O)CC(=O)c1cccc2ccccc12 (stereo not given)
inactive: NCI-H226 > 100 µM | SK-MEL-28 > 100 µM | CAKI-1 39.4 µM | NCI-H522 43.8 µM | NCI-H23 > 100 µM | RPMI-8226 28.9 µM | ACHN > 100 µM | U-251 44.7 µM | HCT-116 69.5 µM | SW-620 38.9 µM | OVCAR-8 > 100 µM | A498 69.5 µM | KM12 41.9 µM | SNB-19 90.8 µM | OVCAR-3 78.3 µM | HOP-62 > 100 µM

CNc1ccc([S+]([O-])Nc2ccccc2)cc1 (stereo not given)
inactive: NCI-H226 21.2 µM | SK-MEL-28 > 100 µM | NCI-H522 19 µM | NCI-H23 55.7 µM | RPMI-8226 39.8 µM | ACHN 84.7 µM | U-251 36.2 µM | HCT-116 40.2 µM | MDA-MB-435 34 µM | SW-620 70.8 µM | Hs-578T 37.7 µM | OVCAR-8 56.2 µM | MDA-MB-231 46.1 µM | KM12 21.8 µM | SNB-19 > 100 µM | OVCAR-3 51.4 µM | HOP-62 58.3 µM | NCI/ADR-RES 65.6 µM

O=C(OCN1C(=O)C2C3C=CC(C2C1=O)C1C2C(=O)N(COC(=O)C4CCCN4)C(=O)C2C31)C1CCCN1 (stereo not given)
inactive: NCI-H226 > 100 µM | SK-MEL-28 > 83.9 µM | CAKI-1 > 86.9 µM | NCI-H522 78.3 µM | NCI-H23 > 100 µM | RPMI-8226 24.8 µM | ACHN > 50.5 µM | U-251 > 45.8 µM | HCT-116 28.8 µM | SW-620 30.2 µM | OVCAR-8 25.5 µM | A498 > 100 µM | KM12 > 94 µM | SNB-19 > 100 µM | OVCAR-3 > 100 µM | HOP-62 > 100 µM

CC1(C)CN=C(Nc2ccc(Cl)cc2)S1
inactive: NCI-H226 > 100 µM | SK-MEL-28 > 100 µM | CAKI-1 > 100 µM | NCI-H522 > 100 µM | NCI-H23 74.6 µM | RPMI-8226 52.6 µM | ACHN > 100 µM | U-251 > 100 µM | HCT-116 69.5 µM | MDA-MB-435 > 100 µM | SW-620 > 100 µM | Hs-578T > 100 µM | OVCAR-8 > 100 µM | MDA-MB-231 > 100 µM | KM12 90.4 µM | SNB-19 > 100 µM | OVCAR-3 71.9 µM | HOP-62 > 100 µM | NCI/ADR-RES 76.6 µM

Cn1c2ccccc2c(=NNc2ccccc2C(=O)O)c2ccccc21
inactive: NCI-H226 16.2 µM | SK-MEL-28 20.2 µM | CAKI-1 23.3 µM | NCI-H522 12 µM | NCI-H23 20.9 µM | RPMI-8226 9.82 µM | ACHN 15.5 µM | U-251 7.03 µM | HCT-116 13.5 µM | MDA-MB-435 20 µM | SW-620 24.4 µM | Hs-578T 21.9 µM | OVCAR-8 17.5 µM | MDA-MB-231 16.9 µM | KM12 12.7 µM | SNB-19 24.4 µM | OVCAR-3 10.8 µM | HOP-62 23.1 µM | NCI/ADR-RES 20.1 µM

CCCCNC(=S)N/C=C1\C(=O)Nc2ccccc2C1=O
inactive: NCI-H226 > 10 µM | SK-MEL-28 > 10 µM | CAKI-1 > 10 µM | NCI-H23 > 10 µM | RPMI-8226 > 10 µM | ACHN > 10 µM | U-251 > 10 µM | MDA-MB-435 > 10 µM | SW-620 > 10 µM | OVCAR-8 > 10 µM | MDA-MB-231 > 10 µM | A498 > 10 µM | KM12 > 10 µM | SNB-19 > 10 µM | OVCAR-3 > 10 µM | HOP-62 > 10 µM | NCI/ADR-RES > 10 µM

O=C1OCC(C(=O)c2cccc(O)c2)C1=O (stereo not given)
inactive: NCI-H226 > 100 µM | SK-MEL-28 > 100 µM | CAKI-1 > 100 µM | NCI-H522 > 100 µM | NCI-H23 > 100 µM | RPMI-8226 > 100 µM | ACHN > 100 µM | U-251 > 100 µM | HCT-116 > 100 µM | SW-620 > 100 µM | OVCAR-8 > 100 µM | A498 > 100 µM | KM12 > 100 µM | SNB-19 > 100 µM | OVCAR-3 > 100 µM | HOP-62 > 100 µM

O=C(c1ccccc1)n1c2ccc(Br)cc2c2nc3ccccc3nc21
inactive: NCI-H226 > 100 µM | SK-MEL-28 > 100 µM | CAKI-1 > 100 µM | NCI-H522 43.7 µM | NCI-H23 > 100 µM | RPMI-8226 27.7 µM | ACHN 57.1 µM | U-251 65 µM | HCT-116 > 100 µM | MDA-MB-435 > 100 µM | SW-620 > 100 µM | OVCAR-8 > 100 µM | MDA-MB-231 > 100 µM | KM12 > 100 µM | SNB-19 > 100 µM | OVCAR-3 34.9 µM | HOP-62 15.9 µM | NCI/ADR-RES > 100 µM

Cc1csc2nc3[nH]ncc3c(=O)n12
inactive: NCI-H226 40.6 µM | SK-MEL-28 > 100 µM | CAKI-1 > 100 µM | NCI-H522 > 100 µM | NCI-H23 > 100 µM | RPMI-8226 > 100 µM | ACHN > 100 µM | U-251 > 100 µM | HCT-116 > 100 µM | MDA-MB-435 > 100 µM | SW-620 > 100 µM | Hs-578T 28.4 µM | OVCAR-8 > 100 µM | MDA-MB-231 > 100 µM | KM12 > 100 µM | SNB-19 > 100 µM | OVCAR-3 > 100 µM | HOP-62 > 100 µM | NCI/ADR-RES 66.8 µM

CON(C)C(=O)C(C)NC(=O)OC(C)(C)C (stereo not given)
inactive: NCI-H226 > 100 µM | SK-MEL-28 > 100 µM | NCI-H23 > 100 µM | RPMI-8226 > 100 µM | ACHN > 100 µM | U-251 > 100 µM | HCT-116 > 100 µM | MDA-MB-435 > 100 µM | SW-620 > 100 µM | Hs-578T > 100 µM | OVCAR-8 > 100 µM | A498 > 100 µM | KM12 > 100 µM | SNB-19 > 100 µM | OVCAR-3 > 100 µM | HOP-62 > 100 µM | NCI/ADR-RES > 100 µM

C=C(C(=O)OC)[C@@H]1C[C@@H](OC(C)=O)C2=C[C@H](C[C@@]3(C)O[C@@H]3C3=CC(C)=C(O3)[C@H]1OC(C)=O)OC2=O [BIPINNATIN I]
inactive: NCI-H226 90.8 µM | SK-MEL-28 16.2 µM | CAKI-1 7.74 µM | NCI-H522 2.59 µM | NCI-H23 14.5 µM | RPMI-8226 5.75 µM | ACHN 16.5 µM | U-251 23.1 µM | HCT-116 10.4 µM | MDA-MB-435 16.8 µM | SW-620 4.71 µM | OVCAR-8 17.3 µM | MDA-MB-231 20.9 µM | A498 16.9 µM | KM12 19.8 µM | SNB-19 47.6 µM | HOP-62 22.7 µM | NCI/ADR-RES 32.9 µM
